Data: patent US20070179121A1, “Method of treating pediatric patients with corticosteroids” (priority 2006, published 2007)

System: HPA-axis
Experiment: HPA-axis suppression: serum cortisol before and 30 minutes after intravenous cosyntropin stimulation, pediatric atopic dermatitis patients
Assay type: in vivo, human (pediatric patients)
Description: At the baseline visit, physical examinations were performed, including measurements of height, weight, and vital signs, and female subjects of childbearing potential underwent a urine pregnancy test (UPT). Patients with any significant disease of the hepatic, renal, endocrine, musculoskeletal, or nervous system were excluded. At Screening/Baseline, each qualified patient was assessed for a normally functioning HPA axis. Male or female patients with clinically diagnosed atopic dermatitis, involving ≧20% of the total body surface area (BSA), were randomized to receive either qd (once a day) or bid (twice a day) treatment in 4 sequential cohorts. The “rule of nines” method was used in calculating affected BSA.
Enrollment in the 4 cohorts was as follows: Cohort 1-33 patients, 12 to <18 years of age; Cohort 2-32 patients, 6 to <12 years of age; Cohort 3-30 patients, 2 to […] Cohort 4-31 infants, 3 months to <2 years of age.
Enrollment into each cohort began only after evaluation of the preceding cohort in order to minimize the risk of systemic toxicity to the study subjects. Four observations of HPA-axis suppression in a single treatment group per cohort were considered as evidence of a clinically significant risk.
Patients who met the inclusion/exclusion criteria were randomized to receive topical fluocinonide either qd or bid. Patients/guardians were instructed to apply a thin layer of the study product to all treatable areas once or twice daily for 14 days. If the areas to be treated were hairy, patients/guardians were instructed to part the hair to allow direct contact between the study product and the lesion. Patients/guardians were also instructed not to apply study product to lesions of the face, groin, perianal area, and axillae. At the end of Weeks 1, 2, and 4, patients returned to the study site in order for the investigator to perform designated evaluations, review treatment compliance and concomitant therapy, and to collect information regarding adverse events.
The potential of fluocinonide to suppress the HPA-axis was assessed by determining the rate of incidence of suppression, when suppression was defined as a serum cortisol level ≦18 μg/dL, 30 minutes after intravenous cosyntropin stimulation. For a subject to be evaluable for HPA-axis suppression, the subject must have received at least 2 full weeks of fluocinonide treatment prior to the cosyntropin challenge. Pre-and post-cosyntropin-stimulation blood samples were obtained between 7:30 and 8:30 AM to account for diurnal variation in cortisol levels, at the Baseline and Week 2 visits, as directed in the Cortrosyn® package insert. Cortrosyn® is a drug that stimulates the adrenal gland. […] The dose and administration of cosyntropin followed the labeling of the product. Specifically, the dose for subjects 3 to 17 years of age was 0.25 mg, and the dose for subjects 3 months to 2 years old was 0.125 mg. At the end of the 14-day treatment period, any subject with a post-stimulation cortisol level ≦18 μg/dL was re-tested at Week 4 and once every 4 weeks thereafter until the post-stimulation levels were within normal limits.
Mean post-stimulation cortisol levels measured at Baseline and at Week 2 were compared using a paired t test.

[1] = Screening, Cohort 2 (6-<12 years), bid
[2] = Screening, Cohort 2 (6-<12 years), qd
[3] = Screening, Cohort 3 (2-<6 years), bid
[4] = Screening, Cohort 3 (2-<6 years), qd
[5] = Screening, Cohort 4 (3 months to <2 year), bid
[6] = Screening, Cohort 4 (3 months to <2 year), qd
[7] = patient of Cohort 3 bid, Week 2 (samples suspected reversed)

In the case of `CC(=O)OCC(=O)[C@@]12OC(C)(C)O[C@@H]1C[C@H]1[C@@H]3C[C@H](F)C4=CC(=O)C=C[C@]4(C)[C@@]3(F)[C@@H](O)C[C@@]12C` [Fluocinonide, pregna-1,4-diene-3,20-dione,21-(acetyloxy)-6,9-difluoro-11-hydroxy-16, 17-[(1-methylethylidene)bis(oxy)]-,(6α., 11β,16α)-], the “Cortisol pre-stimulation level, Range” value (Screening, Cohort 1 (12-<18 years), qd) is reported as 2.0 to 26.1 µg/dL, the “Cortisol increase in levels, Mean ± SD” value [1] is reported as 12.3 ± 3.7 µg/dL and the “Cortisol increase in levels, Range” value [1] is reported as 3.8 to 17.8 µg/dL. The “Cortisol post-stimulation level, Mean ± SD” value [1] was 24.9 ± 3.9 µg/dL, the “Cortisol post-stimulation level, Range” value [1] was 19.4 to 32.1 µg/dL and the “Cortisol pre-stimulation level, Mean ± SD” value [1] was 12.5 ± 4.5 µg/dL. For the same molecule, the “Cortisol pre-stimulation level, Range” value [1] was 6.4 ± 22.2 µg/dL, the “Cortisol increase in levels, Mean ± SD” value [2] was 14.0 ± 6.1 µg/dL and the “Cortisol increase in levels, Range” value [2] was 3.0 to 22.6 µg/dL. The “Cortisol post-stimulation level, Mean ± SD” value [2] was 28.0 ± 4.3 µg/dL, the “Cortisol post-stimulation level, Range” value [2] was 20.9 to 36.2 µg/dL and the “Cortisol pre-stimulation level, Mean ± SD” value [2] was 14.0 ± 5.0 µg/dL. For the same molecule, the “Cortisol pre-stimulation level, Range” value [2] was 6.6 to 25.1 µg/dL, the “Cortisol post-stimulation level, Mean ± SD” value (Screening, Cohort 2 (6-<12 years), qd, listed as fluocinonide) was 28.0 µg/dL and the “Cortisol increase in levels, Mean ± SD” value [3] was 15.6 ± 7.0 µg/dL. The “Cortisol increase in levels, Range” value [3] was 1.8 to 30.0 µg/dL, the “Cortisol post-stimulation level, Mean ± SD” value [3] was 29.9 ± 6.1 µg/dL and the “Cortisol post-stimulation level, Range” value [3] was 20.1 to 40.0 µg/dL. The “Cortisol pre-stimulation level, Mean ± SD” value [3] was 14.4 ± 5.6 µg/dL, the “Cortisol pre-stimulation level, Range” value [3] was 6.1 to 23.4 µg/dL and the “Cortisol increase in levels, Mean ± SD” value [4] was 17.4 ± 3.1 µg/dL. The “Cortisol increase in levels, Range” value [4] was 11.2 to 23.0 µg/dL, the “Cortisol post-stimulation level, Mean ± SD” value [4] was 29.0 ± 3.8 µg/dL and the “Cortisol post-stimulation level, Range” value [4] was 22.8 to 37.0 µg/dL. The “Cortisol pre-stimulation level, Mean ± SD” value [4] was 11.6 ± 3.6 µg/dL, the “Cortisol pre-stimulation level, Range” value [4] was 7.3 to 19.8 µg/dL and the “Cortisol increase in levels, Mean ± SD” value [5] was 17.9 ± 4.7 µg/dL. The “Cortisol increase in levels, Range” value [5] was 11.4 to 25.0 µg/dL, the “Cortisol post-stimulation level, Mean ± SD” value [5] was 29.2 ± 6.1 µg/dL and the “Cortisol post-stimulation level, Range” value [5] was 20.5 to 38.8 µg/dL. The “Cortisol pre-stimulation level, Mean ± SD” value [5] was 11.3 ± 4.9 µg/dL, the “Cortisol pre-stimulation level, Range” value [5] was 6.0 to 20.8 µg/dL and the “Cortisol increase in levels, Mean ± SD” value [6] was 16.5 ± 4.7 µg/dL. The “Cortisol increase in levels, Range” value [6] was 6.1 to 23.0 µg/dL, the “Cortisol post-stimulation level, Mean ± SD” value [6] was 28.3 ± 5.1 µg/dL and the “Cortisol post-stimulation level, Range” value [6] was 20.7 to 36.2 µg/dL. The “Cortisol pre-stimulation level, Mean ± SD” value [6] was 11.8 ± 4.3 µg/dL, the “Cortisol pre-stimulation level, Range” value [6] was 4.7 to 19.6 µg/dL and the “Suppression of the HPA-axis” value (administered once daily, patients 3 months to <18 years of age) was “does not result in suppression of the HPA-axis”. For the same molecule, the HPA-axis suppression (administered topically once or twice daily, pediatric patients with atopic dermatitis) was “does not result in any significant level of HPA-axis suppression”, the “Suppression of the HPA-axis” value (administered twice daily) was “low incidence of suppression of the HPA-axis” and the “Post-stimulation serum cortisol level, single patient” value (shortened to “Post-stimulation serum cortisol level”) (first suppressed patient of Cohort 2 bid, Screening) was 32.1 µg/dL. The “Post-stimulation serum cortisol level” value (first suppressed patient of Cohort 2 bid, Week 2) was 17.2 µg/dL, the “Post-stimulation serum cortisol level” value (first suppressed patient of Cohort 2 bid, Week 4 (2 weeks post-treatment)) was 28.7 µg/dL and the “Post-stimulation serum cortisol level” value (patient of Cohort 3 bid, Screening) was 40.0 µg/dL. The “Post-stimulation serum cortisol level” value [7] was 9.1 µg/dL, the “Pre-stimulation serum cortisol level, single patient” value [7] was 28.0 µg/dL and the “Post-stimulation serum cortisol level” value (patient of Cohort 3 bid, Week 4) was 30.3 µg/dL. For the same molecule, the “Post-stimulation serum cortisol level” value (second suppressed patient of Cohort 2 bid, 8 days after the end of treatment) was 22.4 µg/dL, the “Post-stimulation serum cortisol level” value (second suppressed patient of Cohort 2 bid, Screening) was 20.5 µg/dL and the “Post-stimulation serum cortisol level” value (second suppressed patient of Cohort 2 bid, Week 2) was 16.7 µg/dL. For the same molecule, the “Post-stimulation serum cortisol level” value (suppressed patient of Cohort 1 bid, Week 2) was 17.6 µg/dL and the “Post-stimulation serum cortisol level” value (suppressed patient of Cohort 1 bid, Week 4 (2 weeks post-treatment)) was 18.9 µg/dL.
